Legend:
[1] = clostridioides difficile, 12 h, 2 µM
Description: The drug is tested on Clostridium difficile strain: 120 for biotransformation. The drug concentrations were measured before and after a 12-h incubation by liquid-chromatography-coupled mass spectrometry (LC–MS)

[2] = bacteroides thetaiotaomicron, 12 h, 2 µM
Description: The drug is tested on Bacteroides thetaiotaomicron strain: VPI-5482 for biotransformation. The drug concentrations were measured before and after a 12-h incubation by liquid-chromatography-coupled mass spectrometry (LC–MS)

[3] = roseburia intestinalis, 12 h, 2 µM
Description: The drug is tested on Roseburia intestinalis strain: L1-82 for biotransformation. The drug concentrations were measured before and after a 12-h incubation by liquid-chromatography-coupled mass spectrometry (LC–MS)

[4] = The drug is tested on Clostridium hathewayi strain: DSM13479 for biotransformation. The drug concentrations were measured before and after a 12-h incubation by liquid-chromatography-coupled mass spectrometry (LC–MS); conditions: hungatella hathewayi, 2 µM
[5] = bacteroides fragilis, 12 h, 2 µM
Description: The drug is tested on Bacteroides fragilis strain: 3397 (T10) for biotransformation. The drug concentrations were measured before and after a 12-h incubation by liquid-chromatography-coupled mass spectrometry (LC–MS)

[6] = The drug is tested on Bacteroides fragilis strain: T(B)9 for biotransformation. The drug concentrations were measured before and after a 12-h incubation by liquid-chromatography-coupled mass spectrometry (LC–MS); conditions: 2 µM
[7] = victivallis vadensis, 12 h, 2 µM
Description: The drug is tested on Victivallis vadensis strain: ATCC BAA-548 for biotransformation. The drug concentrations were measured before and after a 12-h incubation by liquid-chromatography-coupled mass spectrometry (LC–MS)

[8] = The drug is tested on Clostridium spiroforme strain: DSM1552 for biotransformation. The drug concentrations were measured before and after a 12-h incubation by liquid-chromatography-coupled mass spectrometry (LC–MS); conditions: thomasclavelia spiroformis, 2 µM
[9] = The drug is tested on Providencia alcalifaciens strain: DSM30120 for biotransformation. The drug concentrations were measured before and after a 12-h incubation by liquid-chromatography-coupled mass spectrometry (LC–MS); conditions: 2 µM
[10] = The drug is tested on Edwardsiella tarda strain: ATCC23685 for biotransformation. The drug concentrations were measured before and after a 12-h incubation by liquid-chromatography-coupled mass spectrometry (LC–MS); conditions: 2 µM
[11] = The drug is tested on Eggerthella lenta strain: ATCC25559 for biotransformation. The drug concentrations were measured before and after a 12-h incubation by liquid-chromatography-coupled mass spectrometry (LC–MS); conditions: 2 µM
[12] = The drug is tested on Bifidobacterium ruminantium strain: fecal isolate for biotransformation. The drug concentrations were measured before and after a 12-h incubation by liquid-chromatography-coupled mass spectrometry (LC–MS); conditions: 2 µM
[13] = The drug is tested on Eubacterium biforme strain: DSM3989 for biotransformation. The drug concentrations were measured before and after a 12-h incubation by liquid-chromatography-coupled mass spectrometry (LC–MS); conditions: holdemanella biformis, 2 µM

Structure (SMILES)	Bacterial Biotransformation [1]	Bacterial Biotransformation [2]	Bacterial Biotransformation [3]	Bacterial Biotransformation [4]	Bacterial Biotransformation [5]	Bacterial Biotransformation [6]	Bacterial Biotransformation [7]	Bacterial Biotransformation [8]	Bacterial Biotransformation [9]	Bacterial Biotransformation [10]	Bacterial Biotransformation [11]	Bacterial Biotransformation [12]	Bacterial Biotransformation [13]
COc1ccc2cc([C@H](C)C(=O)O)ccc2c1 [NAPROXEN]	Compound NOT metabolized	Compound NOT metabolized	Compound NOT metabolized	Compound NOT metabolized	Compound NOT metabolized	Compound NOT metabolized	Compound NOT metabolized	Compound NOT metabolized	Compound NOT metabolized	Compound NOT metabolized	Compound NOT metabolized	–	–
CN1[C@@H]2CC[C@H]1C[C@@H](OC(=O)C(CO)c1ccccc1)C2 (stereo not given in full) [ATROPINE]	–	–	Compound NOT metabolized	–	Compound NOT metabolized	Compound NOT metabolized	–	–	Compound NOT metabolized	–	Compound NOT metabolized	Compound NOT metabolized	–
CN1CCN(C(=O)O[C@H]2c3nccnc3C(=O)N2c2ccc(Cl)cn2)CC1 [ESZOPICLONE]	–	Compound NOT metabolized	Compound NOT metabolized	–	–	–	Compound NOT metabolized	–	–	Compound NOT metabolized	Compound NOT metabolized	Compound NOT metabolized	–
Cc1ccc(NC(=O)c2ccc(CN3CCN(C)CC3)cc2)cc1Nc1nccc(-c2cccnc2)n1 [IMATINIB]	–	Compound NOT metabolized	Compound NOT metabolized	–	–	Compound NOT metabolized	–	Compound NOT metabolized	Compound NOT metabolized	Compound NOT metabolized	Compound NOT metabolized	Compound NOT metabolized	Compound NOT metabolized
CC1Cc2ccccc2N1NC(=O)c1ccc(Cl)c(S(N)(=O)=O)c1 (stereo not given) [INDAPAMIDE]	Compound NOT metabolized	Compound NOT metabolized	Compound NOT metabolized	Compound NOT metabolized	Compound NOT metabolized	–	Compound NOT metabolized	Compound NOT metabolized	–	Compound NOT metabolized	–	Compound NOT metabolized	–
CCCN1C[C@H](CSC)C[C@@H]2c3cccc4[nH]cc(c34)C[C@H]21.CS(=O)(=O)O [PERGOLIDE MESYLATE]	–	Compound NOT metabolized	Compound NOT metabolized	–	Compound NOT metabolized	–	Compound NOT metabolized	–	–	–	Compound NOT metabolized	Compound NOT metabolized	–
Cc1ccc(S(=O)(=O)NC(=O)NN2CC3CCCC3C2)cc1 (stereo not given) [GLICLAZIDE]	–	Compound NOT metabolized	Compound NOT metabolized	–	Compound metabolized	–	Compound NOT metabolized	–	–	Compound NOT metabolized	Compound NOT metabolized	Compound NOT metabolized	–
CCc1nn(CCCN2CCN(c3cccc(Cl)c3)CC2)c(=O)n1CCOc1ccccc1 [NEFAZODONE]	–	Compound NOT metabolized	Compound NOT metabolized	–	Compound NOT metabolized	–	Compound NOT metabolized	–	–	Compound NOT metabolized	Compound NOT metabolized	Compound NOT metabolized	–
CN(C(=O)CN(CCO)CC(=O)N(C)C(C)(C)Cc1ccccc1)C(C)(C)Cc1ccccc1 [OXETHAZAINE]	–	Compound NOT metabolized	Compound NOT metabolized	–	Compound NOT metabolized	–	Compound NOT metabolized	–	–	Compound NOT metabolized	Compound NOT metabolized	Compound NOT metabolized	–
NC(=O)N1c2ccccc2CC(=O)c2ccccc21 [OXCARBAZEPINE]	–	–	Compound metabolized	–	–	–	Compound NOT metabolized	–	–	Compound metabolized	Compound metabolized	Compound metabolized	–
CO[C@]12C[C@@H](COC(=O)c3cncc(Br)c3)CN(C)[C@@H]1Cc1cn(C)c3cccc2c13 [NICERGOLINE]	–	Compound NOT metabolized	Compound NOT metabolized	–	Compound NOT metabolized	–	Compound NOT metabolized	–	–	Compound NOT metabolized	Compound NOT metabolized	Compound NOT metabolized	–
COc1ccc2c(c1)c(CC(=O)O)c(C)n2C(=O)c1ccc(Cl)cc1 [INDOMETHACIN]	–	Compound metabolized	Compound metabolized	–	Compound metabolized	–	Compound NOT metabolized	–	–	Compound NOT metabolized	Compound NOT metabolized	Compound NOT metabolized	–
C=CCN1CC[C@]23c4c5ccc(O)c4O[C@H]2C(=O)CC[C@@]3(O)[C@H]1C5 [NALOXONE]	–	Compound metabolized	Compound metabolized	–	Compound metabolized	–	Compound NOT metabolized	–	–	Compound NOT metabolized	Compound metabolized	Compound NOT metabolized	–
CCC(C)n1ncn(-c2ccc(N3CCN(c4ccc(OCC5COC(Cn6cncn6)(c6ccc(Cl)cc6Cl)O5)cc4)CC3)cc2)c1=O (stereo not given) [ITRACONAZOLE]	–	Compound NOT metabolized	Compound NOT metabolized	–	Compound NOT metabolized	–	Compound NOT metabolized	–	–	Compound NOT metabolized	Compound NOT metabolized	Compound NOT metabolized	–
COc1ccccc1OCC(O)COC(N)=O (stereo not given) [METHOCARBAMOL]	–	Compound NOT metabolized	Compound NOT metabolized	–	Compound NOT metabolized	–	Compound NOT metabolized	–	–	Compound NOT metabolized	Compound NOT metabolized	Compound NOT metabolized	–
O=C(CCCN1CCC(O)(c2ccc(Cl)cc2)CC1)c1ccc(F)cc1 [HALOPERIDOL]	Compound NOT metabolized	Compound NOT metabolized	Compound NOT metabolized	Compound NOT metabolized	Compound NOT metabolized	–	–	Compound NOT metabolized	Compound NOT metabolized	Compound NOT metabolized	–	Compound NOT metabolized	Compound NOT metabolized
CCN(CC)CC#CCOC(=O)C(O)(c1ccccc1)C1CCCCC1.Cl (stereo not given) [OXYBUTYNIN CHLORIDE]	–	Compound NOT metabolized	Compound NOT metabolized	–	–	–	Compound NOT metabolized	–	–	Compound metabolized	Compound NOT metabolized	Compound metabolized	–
OCCN1CCN(CCCN2c3ccccc3Sc3ccc(C(F)(F)F)cc32)CC1 [FLUPHENAZINE]	–	Compound metabolized	Compound metabolized	–	Compound metabolized	–	Compound NOT metabolized	–	–	Compound NOT metabolized	Compound NOT metabolized	Compound NOT metabolized	–
COC1=C(OC)C(=O)C(CCCCCCCCCCO)=C(C)C1=O [IDEBENONE]	–	Compound NOT metabolized	Compound NOT metabolized	–	Compound metabolized	–	Compound NOT metabolized	–	–	Compound NOT metabolized	Compound NOT metabolized	Compound NOT metabolized	–
CCN(CC)C(=O)C1(c2ccccc2)CC1CN (stereo not given)	–	Compound NOT metabolized	Compound NOT metabolized	–	Compound NOT metabolized	–	Compound NOT metabolized	–	–	Compound NOT metabolized	Compound NOT metabolized	Compound NOT metabolized	–

— ChEMBL document CHEMBL5303573, “Mapping human microbiome drug metabolism by gut bacteria and their genes” (Nature, 2019)
